Laboratory results published in ChEMBL document CHEMBL6127064, “Discovery of GNE-6893, a Potent, Selective, Orally Bioavailable Small Molecule Inhibitor of HPK1” (ACS Med Chem Lett, 2024).
Converted amounts (≈) assume the structure as drawn.

Legend:
[1] = Volume of distribution at steady state in C57BL/6 mouse at 25 mg/kg, po or 1 mg/kg, iv measured for 24 hrs by LC-MS/MS analysis; assay type: ADME, organism-based; settings: in vivo
[2] = Half life in Sprague-Dawley rat at 0.5 mg/kg, iv measured for 8 hrs by LC-MS/MS analysis; assay type: ADME, organism-based; settings: in vivo
[3] = Oral bioavailability in Sprague-Dawley rat; assay type: ADME, organism-based; settings: in vivo
[4] = Clearance in Sprague-Dawley rat at 0.5 mg/kg, iv measured for 8 hrs by LC-MS/MS analysis; assay type: ADME, organism-based; settings: in vivo
[5] = Kinetic solubility of the compound in PBS at pH 7.4; assay type: physicochemical; settings: read-out: Kinetic_solubility
[6] = Half life in C57BL/6 mouse at 25 mg/kg, po or 1 mg/kg, iv measured for 24 hrs by LC-MS/MS analysis; assay type: ADME, organism-based; settings: in vivo
[7] = Apparent permeability of the compound across apical to basolateral side in dog MDCK1 cells at 10 uM by LC-MS/MS analysis; assay type: ADME, cell-based, Canis lupus familiaris; settings: MDCK
[8] = Volume of distribution at steady state in Sprague-Dawley rat at 0.5 mg/kg, iv measured for 8 hrs by LC-MS/MS analysis; assay type: ADME, organism-based; settings: in vivo, read-out: Vdss
[9] = Inhibition of human full length HPK1-T165E/S171E mutant expressed in baculovirus expression system assessed as inhibition of SLP76 phosphorylation using biotinylated SLP76 as substrate preincubated for 30 mins followed by incubation with substrate in presence of ATP and measured for 60 mins by HTRF assay
[10] = biological target: T1, Mitogen-activated protein kinase kinase kinase kinase 1 (Homo sapiens, UniProt Q92918); test: Inhibition of HPK1 in primary human Pan T cells assessed as increase in IL-2 secretion pretreated for 30 mins followed by incubation with anti-CD3/anti-CD28 and measured after 4 hrs by MSD assay; assay type: cell-based, T cell
T1 sequence (Q92918 whole entry): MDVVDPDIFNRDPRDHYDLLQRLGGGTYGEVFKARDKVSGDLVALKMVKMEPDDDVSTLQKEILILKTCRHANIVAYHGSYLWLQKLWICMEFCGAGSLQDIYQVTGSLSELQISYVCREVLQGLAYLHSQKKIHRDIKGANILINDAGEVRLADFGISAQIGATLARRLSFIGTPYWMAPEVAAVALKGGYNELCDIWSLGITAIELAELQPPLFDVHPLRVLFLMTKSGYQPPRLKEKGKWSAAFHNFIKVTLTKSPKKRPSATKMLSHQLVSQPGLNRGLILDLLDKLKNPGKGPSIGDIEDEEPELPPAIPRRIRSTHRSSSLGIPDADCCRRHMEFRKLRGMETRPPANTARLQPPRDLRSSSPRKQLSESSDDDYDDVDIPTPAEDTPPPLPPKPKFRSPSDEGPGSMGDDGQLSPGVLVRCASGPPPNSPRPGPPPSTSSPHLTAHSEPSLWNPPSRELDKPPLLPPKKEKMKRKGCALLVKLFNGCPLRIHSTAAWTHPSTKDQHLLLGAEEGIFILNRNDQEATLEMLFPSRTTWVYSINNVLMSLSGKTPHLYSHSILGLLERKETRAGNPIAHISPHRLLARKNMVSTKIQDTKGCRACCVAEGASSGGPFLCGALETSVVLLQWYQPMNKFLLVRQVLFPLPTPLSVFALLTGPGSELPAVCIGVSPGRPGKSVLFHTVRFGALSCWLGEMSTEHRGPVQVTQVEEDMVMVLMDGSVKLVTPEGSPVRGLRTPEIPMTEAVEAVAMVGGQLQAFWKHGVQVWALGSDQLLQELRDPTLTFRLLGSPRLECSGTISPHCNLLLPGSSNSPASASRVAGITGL

[11] = Oral bioavailability in C57BL/6 mouse at 25 mg/kg measured for 24 hrs by LC-MS/MS analysis; assay type: ADME, organism-based; settings: C57BL/6, mouse, in vivo
[12] = biological target: T1, Mitogen-activated protein kinase kinase kinase kinase 1; test: Inhibition of HPK1 in human Jurkat cells assessed as inhibition of anti-CD3/anti-CD28-induced SLP76 phosporylation at Ser376 residue incubated for 30 mins by ELISA; assay type: cell-based

Structure (SMILES)	Vdss [1] [L/kg]	half-life [2] [min]	bioavailability [3] [%]	clearance [4] [mL/min/kg]	solubility kinetic [5] [µM]	half-life [6] [min]	Papp A→B at 10 µM [7] [×10⁻⁶ cm/s]	Vd [8] [L/kg]	Ki [9] [nM]	EC50 [10] [nM]	bioavailability [11] [%]	IC50 [12] [nM]
Cc1c(N)cncc1-c1cc2cc(NC(=O)OC3CCOCC3)ncc2c(N)c1F	1.7	72	94	38	13 (≈ 5.35 µg/mL)	78	15	3.2	0.498			
Cc1c(-c2cc3cc(NC(=O)OC4CCOCC4)ncc3c(N)c2F)cnc2c1NCCO2	1.3	90	16	17	1.5 (≈ 0.68 µg/mL)	66	18	1.5	< 0.019	39	31	97
